Measurements as given in ChEMBL document CHEMBL1201861, “Genomics of Drug Sensitity in Cancer screening data, Wellcome Trust Sanger Institute”.
pIC50: −log10 of the molar value.

Assays:
RPMI-2650 = assay: cells; assay type: functional, cell-based; settings: Homo sapiens
Description: SANGER: Inhibition of human RPMI-2650 cell growth in a cell viability assay.

BB65-RCC = assay: cells; assay type: functional, cell-based; settings: Homo sapiens;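 further: growth inhibition of the cell line, measured with a cell viability assay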
Description: SANGER: Inhibition of human BB65-RCC cell growth in a cell viability assay.

ES4 = assay: cells; assay type: functional, cell-based; settings: Homo sapiens;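 further: growth inhibition of human ES4 cells, read out by a cell viability assay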
Description: SANGER: Inhibition of human ES4 cell growth in a cell viability assay.

ALL-PO = assay: cells; assay type: functional, cell-based; settings: Homo sapiens;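 further: growth inhibition of ALL-PO cells, read out by a cell viability assay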
Description: SANGER: Inhibition of human ALL-PO cell growth in a cell viability assay.

COLO-320-HSR = assay: cells; assay type: functional, cell-based; settings: Homo sapiens;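 further: growth inhibition of COLO-320-HSR cells, determined with a cell viability assay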
Description: SANGER: Inhibition of human COLO-320-HSR cell growth in a cell viability assay.

DoTc2-4510 = assay: cells; assay type: functional, cell-based; settings: Homo sapiens
NCI-H1395 = assay: cells; assay type: functional, cell-based; settings: Homo sapiens;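 further: cell viability assay read-out quantifying reduced proliferation of human NCI-H1395 cells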
Description: SANGER: Inhibition of human NCI-H1395 cell growth in a cell viability assay.

NCI-H1581 = assay: cells; assay type: functional, cell-based; settings: Homo sapiens;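 further: cell growth inhibition read out by a viability assay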
Description: SANGER: Inhibition of human NCI-H1581 cell growth in a cell viability assay.

MOLT-4 = assay: cells; assay type: functional, cell-based; settings: Homo sapiens;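 further: growth inhibition of MOLT-4 cells, determined with a cell viability readout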
Description: SANGER: Inhibition of human MOLT-4 cell growth in a cell viability assay.

NB13 = assay: cells; assay type: functional, cell-based; settings: Homo sapiens;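 further: cell viability readout measuring growth inhibition of human NB13 cells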
Description: SANGER: Inhibition of human NB13 cell growth in a cell viability assay.

LB2241-RCC = assay: cells; assay type: functional, cell-based; settings: Homo sapiens;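 further: cell viability assay measuring how strongly the cultured human renal carcinoma line is prevented from growing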
Description: SANGER: Inhibition of human LB2241-RCC cell growth in a cell viability assay.

GT3TKB = assay: cells; assay type: functional, cell-based; settings: Homo sapiens;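 further: growth inhibition of the cell line, read out with a cell viability assay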
Description: SANGER: Inhibition of human GT3TKB cell growth in a cell viability assay.

VA-ES-BJ = assay: cells; assay type: functional, cell-based; settings: Homo sapiens;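 further: growth inhibition of the VA-ES-BJ cell line, read out by a cell viability assay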
Description: SANGER: Inhibition of human VA-ES-BJ cell growth in a cell viability assay.

BV-173 = assay: cells; assay type: functional, cell-based; settings: Homo sapiens
Description: SANGER: Inhibition of human BV-173 cell growth in a cell viability assay.

MIA PaCa-2 = assay: cells; assay type: functional, cell-based; settings: Homo sapiens;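 further: growth inhibition of MIA PaCa-2 cells, read out with a cell viability assay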
Description: SANGER: Inhibition of human MIA-PaCa-2 cell growth in a cell viability assay.

RS4-11 = assay: cells; assay type: functional, cell-based; settings: Homo sapiens;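 further: growth inhibition of RS4-11 cells, read out by a cell viability assay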
Description: SANGER: Inhibition of human RS4-11 cell growth in a cell viability assay.

NKM-1 = assay: cells; assay type: functional, cell-based; settings: Homo sapiens;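 further: growth inhibition of NKM-1 cells, read out with a cell viability assay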
Description: SANGER: Inhibition of human NKM-1 cell growth in a cell viability assay.

A4-Fuk = assay: cells; assay type: functional, cell-based; settings: Homo sapiens;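 further: growth inhibition of A4-Fuk cells, read out by a cell viability assay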
Description: SANGER: Inhibition of human A4-Fuk cell growth in a cell viability assay.

GB-1 = assay: cells; assay type: functional, cell-based; settings: Homo sapiens;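 further: growth of GB-1 cells judged by a viability assay, IC50 marks the concentration inhibiting growth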
Description: SANGER: Inhibition of human GB-1 cell growth in a cell viability assay.

JAR = assay: cells; assay type: functional, cell-based; settings: Homo sapiens;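 further: growth inhibition of human JAR cells determined with a cell viability assay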
Description: SANGER: Inhibition of human JAR cell growth in a cell viability assay.

TGBC24TKB = assay: cells; assay type: functional, cell-based; settings: Homo sapiens;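 further: growth inhibition of human TGBC24TKB cells, read out with a cell viability assay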
Description: SANGER: Inhibition of human TGBC24TKB cell growth in a cell viability assay.

LU-165 = assay: cells; assay type: functional, cell-based; settings: Homo sapiens
Description: SANGER: Inhibition of human LU-165 cell growth in a cell viability assay.

A-431 = assay: cells; assay type: functional, cell-based; settings: Homo sapiens;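 further: growth inhibition of A-431 cells, determined with a cell viability read-out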
Description: SANGER: Inhibition of human A431 cell growth in a cell viability assay.

IST-SL1 = assay: cells; assay type: functional, cell-based; settings: Homo sapiens;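 further: growth inhibition of human IST-SL1 cells, read out with a cell viability assay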
Description: SANGER: Inhibition of human IST-SL1 cell growth in a cell viability assay.

HL-60 = assay: cells; assay type: functional, cell-based; settings: Homo sapiens;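 further: growth inhibition of human HL-60 cells, read out with a cell viability assay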
Description: SANGER: Inhibition of human HL-60 cell growth in a cell viability assay.

U-266 = assay: cells; assay type: functional, cell-based; settings: Homo sapiens
Description: SANGER: Inhibition of human U-266 cell growth in a cell viability assay.

MOLT-16 = assay: cells; assay type: functional, cell-based; settings: Homo sapiens;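 further: growth inhibition of human MOLT-16 cells, read out with a cell viability assay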
Description: SANGER: Inhibition of human MOLT-16 cell growth in a cell viability assay.

NCI-H526 = assay: cells; assay type: functional, cell-based; settings: Homo sapiens;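 further: growth inhibition of the human NCI-H526 cell line, measured by a cell viability assay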
Description: SANGER: Inhibition of human NCI-H526 cell growth in a cell viability assay.

EW-18 = assay: cells; assay type: functional, cell-based; settings: Homo sapiens;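 further: growth inhibition of EW-18 cells, read out by a cell viability assay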
Description: SANGER: Inhibition of human EW-18 cell growth in a cell viability assay.

COLO-829 = assay: cells; assay type: functional, cell-based; settings: Homo sapiens
Description: SANGER: Inhibition of human COLO-829 cell growth in a cell viability assay.

GI-ME-N = assay: cells; assay type: functional, cell-based; settings: Homo sapiens;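 further: growth inhibition of human GI-ME-N cells, read out with a cell viability assay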
Description: SANGER: Inhibition of human GI-ME-N cell growth in a cell viability assay.

KM12 = assay: cells; assay type: functional, cell-based; settings: Homo sapiens;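 further: KM12 cell growth inhibition, read out with a cell viability assay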
Description: SANGER: Inhibition of human KM12 cell growth in a cell viability assay.

NCI-H2126 = assay: cells; assay type: functional, cell-based; settings: Homo sapiens;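 further: growth inhibition of the cancer cell line, determined with a cell viability readout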
Description: SANGER: Inhibition of human NCI-H2126 cell growth in a cell viability assay.

NCI-H1651 = assay: cells; assay type: functional, cell-based; settings: Homo sapiens;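 further: Read-out is a cell viability assay, with IC50 expressing inhibition of NCI-H1651 cell growth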
Description: SANGER: Inhibition of human NCI-H1651 cell growth in a cell viability assay.

LU-134-A = assay: cells; assay type: functional, cell-based; settings: Homo sapiens
Description: SANGER: Inhibition of human LU-134-A cell growth in a cell viability assay.

ACN = assay: cells; assay type: functional, cell-based; settings: Homo sapiens;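 further: growth inhibition of the human ACN cell line, read out via cell viability testing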
Description: SANGER: Inhibition of human ACN cell growth in a cell viability assay.

NB69 = assay: cells; assay type: functional, cell-based; settings: Homo sapiens;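 further: growth inhibition of NB69 cells, determined by a cell viability assay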
Description: SANGER: Inhibition of human NB69 cell growth in a cell viability assay.

L-363 = assay: cells; assay type: functional, cell-based; settings: Homo sapiens
Description: SANGER: Inhibition of human L-363 cell growth in a cell viability assay.

LB831-BLC = assay: cells; assay type: functional, cell-based; settings: Homo sapiens;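 further: growth inhibition of LB831-BLC cells, read out with a cell viability assay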
Description: SANGER: Inhibition of human LB831-BLC cell growth in a cell viability assay.

NCI-H1299 = assay: cells; assay type: functional, cell-based; settings: Homo sapiens;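 further: growth inhibition of human NCI-H1299 cells, read out by a cell viability assay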
Description: SANGER: Inhibition of human NCI-H1299 cell growth in a cell viability assay.

MFH-ino = assay: cells; assay type: functional, cell-based; settings: Homo sapiens;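 further: growth inhibition of human MFH-ino cells, read out by a cell viability assay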
Description: SANGER: Inhibition of human MFH-ino cell growth in a cell viability assay.

BCPAP = assay: cells; assay type: functional, cell-based; settings: Homo sapiens;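 further: growth inhibition of BCPAP cells, read out in a cell viability assay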
Description: SANGER: Inhibition of human BCPAP cell growth in a cell viability assay.

MKN-45 = assay: cells; assay type: functional, cell-based; settings: Homo sapiens;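 further: growth inhibition of human MKN-45 cells, measured with a cell viability assay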
Description: SANGER: Inhibition of human MKN45 cell growth in a cell viability assay.

EM-2 = assay: cells; assay type: functional, cell-based; settings: Homo sapiens;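 further: growth inhibition of EM-2 cells, read out with a cell viability assay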
Description: SANGER: Inhibition of human EM-2 cell growth in a cell viability assay.

DJM-1 = assay: cells; assay type: functional, cell-based; settings: Homo sapiens;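 further: growth inhibition of human DJM-1 cells, read out by a cell viability assay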
Description: SANGER: Inhibition of human DJM-1 cell growth in a cell viability assay.

KY821 = assay: cells; assay type: functional, cell-based; settings: Homo sapiens;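 further: growth inhibition of human KY821 cells, read out by a cell viability assay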
Description: SANGER: Inhibition of human KY821 cell growth in a cell viability assay.

LS-411N = assay: cells; assay type: functional, cell-based; settings: Homo sapiens
A204 = assay: cells; assay type: functional, cell-based; settings: Homo sapiens;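 further: growth inhibition of human A204 cells, read out with a cell viability assay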
Description: SANGER: Inhibition of human A204 cell growth in a cell viability assay.

CW-2 = assay: cells; assay type: functional, cell-based; settings: Homo sapiens;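 further: growth inhibition of CW-2 cells, read out by a cell viability assay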
Description: SANGER: Inhibition of human CW-2 cell growth in a cell viability assay.

NCI-H720 = assay: cells; assay type: functional, cell-based; settings: Homo sapiens;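 further: growth inhibition of human NCI-H720 cells determined by a cell viability assay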
Description: SANGER: Inhibition of human NCI-H720 cell growth in a cell viability assay.

SK-LMS-1 = assay: cells; assay type: functional, cell-based; settings: Homo sapiens;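 further: growth inhibition of human SK-LMS-1 cells, read out with a cell viability assay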
Description: SANGER: Inhibition of human SK-LMS-1 cell growth in a cell viability assay.

P30-OHK = assay: cells; assay type: functional, cell-based; settings: Homo sapiens;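 further: growth inhibition of the P30-OHK cell line, read out with a cell viability assay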
Description: SANGER: Inhibition of human P30-OHK cell growth in a cell viability assay.

CP66-MEL = assay: cells; assay type: functional, cell-based; settings: Homo sapiens;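 further: growth inhibition of CP66-MEL cells determined in a cell viability assay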
Description: SANGER: Inhibition of human CP66-MEL cell growth in a cell viability assay.

RXF 393 = assay: cells; assay type: functional, cell-based; settings: Homo sapiens;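 further: growth inhibition of human RXF 393 cells, read out with a cell viability assay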
Description: SANGER: Inhibition of human RXF393 cell growth in a cell viability assay.

MEG-01 = assay: cells; assay type: functional, cell-based; settings: Homo sapiens;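 further: growth inhibition of MEG-01 cells, read out by a cell viability assay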
Description: SANGER: Inhibition of human MEG-01 cell growth in a cell viability assay.

IGROV-1 = assay: cells; assay type: functional, cell-based; settings: Homo sapiens;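 further: reduction of IGROV-1 cell growth, read out with a viability assay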
Description: SANGER: Inhibition of human IGROV-1 cell growth in a cell viability assay.

DEL = assay: cells; assay type: functional, cell-based; settings: Homo sapiens
Description: SANGER: Inhibition of human DEL cell growth in a cell viability assay.

IM-9 = assay: SANGER: Inhibition of human IM-9 cell growth in a cell viability assay.; assay type: functional, cell-based
MV4-11 = assay: cells; assay type: functional, cell-based, MV-4-11; settings: Homo sapiens
Description: SANGER: Inhibition of human MV-4-11 cell growth in a cell viability assay.

SW982 = assay: cells; assay type: functional, cell-based; settings: Homo sapiens
Description: SANGER: Inhibition of human SW982 cell growth in a cell viability assay.

MZ2-MEL = assay: cells; assay type: functional, cell-based; settings: Homo sapiens
Description: SANGER: Inhibition of human MZ2-MEL cell growth in a cell viability assay.

Becker = assay: cells; assay type: functional, cell-based; settings: Homo sapiens
Description: SANGER: Inhibition of human Becker cell growth in a cell viability assay.

LS-123 = assay: cells; assay type: functional, cell-based; settings: Homo sapiens
Description: SANGER: Inhibition of human LS-123 cell growth in a cell viability assay.

BB49-HNC = assay: cells; assay type: functional, cell-based; settings: Homo sapiens
Description: SANGER: Inhibition of human BB49-HNC cell growth in a cell viability assay.

Measured: pIC50

C/C(O)=C(\C#N)C(=O)Nc1cc(Br)ccc1Br
< 4.80: all assays above
